Read-outs that look alike come from different tables or passages of the source.
Tests used:
human DGKα = human DGKα (Homo sapiens (Human), UniProt P23743); test: DGKα LIPGLO assay (extruded liposome substrate, ADP-Glo luminescence); assay type: biochemical
human DGKζ = human DGKζ (Homo sapiens (Human), UniProt Q13574); test: DGKζ LIPGLO assay (extruded liposome substrate, ADP-Glo luminescence); assay type: biochemical
[1] = tested on: human venous whole blood (IFN-γ); test: Human whole blood IFN-γ assay; assay type: cell-based
Experimental: Human venous whole blood (22.5 μL per well), obtained from healthy donors, was pre-treated with compounds for one hour at 37° C. in a humidified 95% air/5% CO2 incubator. The blood was stimulated with 2.5 μL anti-human CD3 and anti-CD28 mAb at a final concentration of 1 μg/mL each for 24 hours at 37° C. IFN-γ in the supernatants was measured using AlphLISA kit (Cat #AL217).

[2] = liposome assay, read-out: DGK alpha LIPGLO IC50
[3] = liposome assay, read-out: DGK zeta LIPGLO IC50
[4] = whole blood, normalized to 3 μM reference compound as 100% activation, read-out: IFN-γ Whole Blood Normalized EC50
[5] = Homo sapiens, whole blood, normalized to 3 μM reference compound as 100% activation, read-out: IFN-γ Whole Blood Normalized EC50

Chain of human DGKζ (Q13574 other isoform, or with tags, fused parts or gaps): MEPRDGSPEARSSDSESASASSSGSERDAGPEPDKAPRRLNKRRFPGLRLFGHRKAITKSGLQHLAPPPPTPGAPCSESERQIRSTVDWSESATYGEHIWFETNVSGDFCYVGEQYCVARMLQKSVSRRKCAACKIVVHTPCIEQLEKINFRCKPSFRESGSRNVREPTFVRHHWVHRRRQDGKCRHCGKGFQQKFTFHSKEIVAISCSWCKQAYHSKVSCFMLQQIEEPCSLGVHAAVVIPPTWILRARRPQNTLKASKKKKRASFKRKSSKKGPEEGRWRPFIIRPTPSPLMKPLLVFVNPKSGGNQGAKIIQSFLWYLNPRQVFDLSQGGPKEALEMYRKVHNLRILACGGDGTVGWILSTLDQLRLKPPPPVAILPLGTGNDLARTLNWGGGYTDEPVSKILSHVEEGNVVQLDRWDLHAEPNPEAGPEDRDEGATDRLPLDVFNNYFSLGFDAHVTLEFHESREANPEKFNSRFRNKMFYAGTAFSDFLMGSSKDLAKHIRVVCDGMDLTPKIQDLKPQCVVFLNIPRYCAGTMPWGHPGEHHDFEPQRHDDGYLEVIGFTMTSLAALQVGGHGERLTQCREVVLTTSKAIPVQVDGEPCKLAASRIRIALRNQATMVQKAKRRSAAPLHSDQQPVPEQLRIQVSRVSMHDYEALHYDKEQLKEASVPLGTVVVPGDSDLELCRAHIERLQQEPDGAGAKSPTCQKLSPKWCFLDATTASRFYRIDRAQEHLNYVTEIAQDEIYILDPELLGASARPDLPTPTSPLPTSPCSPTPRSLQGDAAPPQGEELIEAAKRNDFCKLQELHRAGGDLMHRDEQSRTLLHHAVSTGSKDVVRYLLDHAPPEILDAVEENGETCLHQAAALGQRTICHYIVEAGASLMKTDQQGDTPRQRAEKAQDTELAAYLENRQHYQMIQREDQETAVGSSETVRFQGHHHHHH
Chain of human DGKα (P23743 whole entry, looked up): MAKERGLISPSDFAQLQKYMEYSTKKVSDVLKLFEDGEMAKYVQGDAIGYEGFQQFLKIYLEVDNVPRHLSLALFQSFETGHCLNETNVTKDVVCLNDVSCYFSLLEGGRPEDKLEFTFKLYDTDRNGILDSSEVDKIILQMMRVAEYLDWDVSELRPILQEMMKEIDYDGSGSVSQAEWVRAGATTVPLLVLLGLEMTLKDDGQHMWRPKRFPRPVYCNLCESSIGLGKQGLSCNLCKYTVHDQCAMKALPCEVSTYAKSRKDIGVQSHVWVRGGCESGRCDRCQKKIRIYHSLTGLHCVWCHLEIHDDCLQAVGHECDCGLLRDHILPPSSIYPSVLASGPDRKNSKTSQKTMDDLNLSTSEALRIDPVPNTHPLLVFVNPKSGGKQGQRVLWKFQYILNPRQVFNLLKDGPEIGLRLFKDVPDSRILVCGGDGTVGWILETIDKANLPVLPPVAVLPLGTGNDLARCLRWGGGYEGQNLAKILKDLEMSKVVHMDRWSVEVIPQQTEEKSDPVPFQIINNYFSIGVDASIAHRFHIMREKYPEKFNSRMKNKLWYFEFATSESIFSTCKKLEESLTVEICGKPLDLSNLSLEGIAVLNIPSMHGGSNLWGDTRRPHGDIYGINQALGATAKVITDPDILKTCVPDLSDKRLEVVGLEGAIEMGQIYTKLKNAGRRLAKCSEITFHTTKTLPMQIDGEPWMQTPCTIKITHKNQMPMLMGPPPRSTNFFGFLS

| SMILES | IC50 (human DGKα; [2]) [nM] | IC50 (human DGKζ; [3]) [nM] | IC50 (human DGKα; liposome (LIPGLO) assay, read-out: DGK alpha (liposome assay) IC50) [nM] | IC50 (human DGKζ; liposome (LIPGLO) assay, read-out: DGK zeta (liposome assay) IC50) [nM] | EC50 ([1]; human whole blood, anti-CD3 plus anti-CD28 stimulation, 24 hours, read-out: IFN-γ Whole Blood EC50) [nM] | EC50 [1, 4] [nM] | EC50 [1, 5] [nM] |
| --- | --- | --- | --- | --- | --- | --- | --- |
| C[C@@H]1CN(c2nc(=O)n(C)c3ccc(C#N)nc23)[C@@H](C)CN1Cc1cc(F)c(F)cc1Cl [Example 134, 4-((2S,5R)-4-(2-chloro-4,5-difluorobenzyl)-2,5-dimethylpiperazin-1-yl)-1-methyl-2-oxo-1,2-dihydropyrido[3,2-d]pyrimidine-6-carbonitrile] | 4260 | 780 | – | – | – | – | 3670 |
| CC[C@H]1CN(C(C)c2ccc(C(F)(F)F)cc2)[C@H](C)CN1c1nc(=O)n(C)c2ccc(C#N)nc12 (stereo partly drawn) [Example 116, 4-((2S,5R)-2-ethyl-5-methyl-4-(1-(4-(trifluoromethyl)phenyl)ethyl)piperazin-1-yl)-1-methyl-2-oxo-1,2-dihydropyrido[3,2-d]pyrimidine-6-carbonitrile] | 1000 | 2110 | – | – | – | 1430 | – |
| C[C@@H]1CN(c2nc(=O)n(C)c3ccc(C#N)nc23)[C@@H](C)CN1Cc1ccc(F)cc1Cl [Example 136, 4-((2S,5R)-4-(2-chloro-4-fluorobenzyl)-2,5-dimethylpiperazin-1-yl)-1-methyl-2-oxo-1,2-dihydropyrido[3,2-d]pyrimidine-6-carbonitrile] | 920 | 220 | – | – | – | – | 650 |
| CC[C@H]1CN(C(C)c2ccc(C(C)(C)C#N)cc2)[C@H](CC)CN1c1nc(=O)n(C)c2ccc(C#N)nc12 (stereo partly drawn) [Example 197, 4-((2S,5R)-4-(1-(4-(2-cyanopropan-2-yl)phenyl)ethyl)-2,5-diethylpiperazin-1-yl)-1-methyl-2-oxo-1,2-dihydropyrido[3,2-d]pyrimidine-6-carbonitrile] | 1470 | 220 | – | – | – | 310 | – |
| CC(c1ccc(OC(C)(C)C#N)cc1)N1C[C@H](C)N(c2nc(=O)n(C)c3ccc(C#N)nc23)C[C@H]1C (stereo partly drawn) [Example 377, 4-((2S,5R)-4-(1-(4-((2-cyanopropan-2-yl)oxy)phenyl)ethyl)-2,5-dimethylpiperazin-1-yl)-1-methyl-2-oxo-1,2-dihydropyrido[3,2-d]pyrimidine-6-carbonitrile] | – | – | 240 | 370 | 520 | – | – |
| CC[C@H]1CN(C(C)c2ccc(C(F)(F)F)nc2)[C@H](CC)CN1c1nc(=O)n(C)c2ccc(C#N)nc12 (single isomer, unassigned) [Example 45] | 310 | 510 | – | – | – | 1040 | – |
| CC[C@@H]1CN(c2nc(=O)n(C)c3ccc(C#N)nc23)[C@@H](CC)CN1Cc1ccc(OC(F)(F)F)cc1 [Example 22, 4-((2S,5R)-2,5-diethyl-4-(4-(trifluoromethoxy)benzyl)piperazin-1-yl)-1-methyl-2-oxo-1,2-dihydropyrido[3,2-d]pyrimidine-6-carbonitrile] | 2 | 180 | – | – | – | – | 380 |
| CCC(c1ccc(OC(F)F)cc1)N1C[C@H](C)N(c2nc(=O)n(C)c3ccc(C#N)nc23)C[C@H]1CC (single isomer, unassigned) [Example 78] | 470 | 1130 | – | – | – | – | 75 |
| CC[C@@H]1CN(c2nc(=O)n(C)c3ccc(C#N)nc23)[C@@H](C)CN1Cc1ccc(OC(F)(F)F)cc1F [Example 62, 4-((2S,5R)-5-ethyl-4-(2-fluoro-4-(trifluoromethoxy)benzyl)-2-methylpiperazin-1-yl)-1-methyl-2-oxo-1,2-dihydropyrido[3,2-d]pyrimidine-6-carbonitrile] | 58 | 220 | – | – | – | – | 200 |
| CCC(c1ccc(OC(F)(F)F)cc1F)N1C[C@H](C)N(c2nc(=O)n(C)c3ccc(C#N)nc23)C[C@H]1C (single isomer, unassigned) [Example 153] | 690 | 1980 | – | – | – | 2310 | – |

The remaining compounds from weak to strong by IC50 (human DGKα; [2]), led by results:

| IC50 (human DGKα; [2]) [nM] | IC50 (human DGKζ; [3]) [nM] | IC50 (human DGKα; liposome (LIPGLO) assay, read-out: DGK alpha (liposome assay) IC50) [nM] | IC50 (human DGKζ; liposome (LIPGLO) assay, read-out: DGK zeta (liposome assay) IC50) [nM] | EC50 ([1]; human whole blood, anti-CD3 plus anti-CD28 stimulation, 24 hours, read-out: IFN-γ Whole Blood EC50) [nM] | SMILES | EC50 [1, 4] [nM] | EC50 [1, 5] [nM] |
| --- | --- | --- | --- | --- | --- | --- | --- |
| 25600 | 2880 | – | – | – | CC(c1cc(F)c(F)c(F)c1)N1C[C@H](C)N(c2nc(=O)n(C)c3ccc(C#N)nc23)C[C@H]1C (single isomer, unassigned) [Example 139] | – | 20000 |
| 1560 | 560 | – | – | – | C[C@@H]1CN(c2nc(=O)n(C)c3ccc(C#N)nc23)[C@@H](C)CN1C(c1ccc(F)cc1)c1csc(C(F)(F)F)n1 (single isomer, unassigned) [Example 171] | 220 | – |
| 820 | 1550 | – | – | – | CC(c1ccc(F)cc1)N1C[C@H](C)N(c2nc(=O)n(C)c3ccc(C#N)nc23)C[C@H]1C (single isomer, unassigned) [Example 129] | – | 13200 |
| 680 | 630 | – | – | – | CC[C@H]1CN(C(C)c2ccc(OCC3CC3)cc2)[C@H](CC)CN1c1nc(=O)n(C)c2ccc(C#N)nc12 (single isomer, unassigned) [Example 24] | 450 | – |
| 670 | 22 | – | – | – | CC[C@@H]1CN(c2nc(=O)n(C)c3ccc(C#N)nc23)[C@@H](C)CN1C(C)c1ccc2c(c1)OC(F)(F)O2 (single isomer, unassigned) [Example 71] | 66 | – |
| 660 | 570 | – | – | – | C[C@@H]1CN(c2nc(=O)n(C)c3ccc(C#N)nc23)[C@@H](C)CN1C(c1ccc(F)cc1)c1nc(C2CC2)cs1 (single isomer, unassigned) [Example 158] | 1580 | – |
| 590 | 140 | – | – | – | COC[C@@H]1CN(c2nc(=O)n(C)c3ccc(C#N)nc23)[C@@H](C)CN1C(C)c1ccc(C(F)(F)F)cc1 (single isomer, unassigned) [Example 174] | 140 | – |
| 430 | 2030 | – | – | – | C[C@H]1CN(C(c2ccc(F)cc2)c2ccc(C(F)(F)F)cn2)[C@H](CO)CN1c1nc(=O)n(C)c2ccc(C#N)nc12 (single isomer, unassigned) [Example 182] | 2530 | – |
| 380 | 370 | – | – | – | C[C@@H]1CN(c2nc(=O)n(C)c3ccc(C#N)nc23)[C@@H](C)CN1C(c1ccc(OC(F)(F)F)cc1)c1cc(C2CC2)on1 (single isomer, unassigned) [Example 165] | 630 | – |
| 330 | 44 | – | – | – | CC[C@@H]1CN(c2nc(=O)n(C)c3ccc(C#N)nc23)[C@@H](C)CN1C(C)c1ccc(C2CC2)cc1F (single isomer, unassigned) [Example 91] | – | 190 |
| 300 | 260 | – | – | – | CC[C@@H]1CN(c2nc(=O)n(C)c3ccc(C#N)nc23)[C@@H](C)CN1C(C)c1ccc(C(F)(F)F)cc1F (single isomer, unassigned) [Example 59] | 500 | – |
| 230 | 52 | – | – | – | CC[C@@H]1CN(c2nc(=O)n(C)c3ccc(C#N)nc23)[C@@H](C)CN1C(C)c1ccc(OC(C)C)cc1 (single isomer, unassigned) [Example 52] | 53 | – |
| 120 | 340 | – | – | – | C[C@@H]1CN(c2nc(=O)n(C)c3ccc(C#N)nc23)[C@@H](C)CN1C(c1ccc(OC(F)(F)F)cc1)c1cc(C2CC2)on1 (single isomer, unassigned) [Example 164] | – | 650 |
| 81 | 22 | – | – | – | COC[C@@H]1CN(c2nc(=O)n(C)c3ccc(C#N)nc23)[C@@H](C)CN1C(c1ccc(F)cc1)c1ccc(C(F)(F)F)cn1 (single isomer, unassigned) [Example 179] | 55 | – |
| 16 | 370 | – | – | – | CCC(c1ccc(OC(F)(F)F)cc1)N1C[C@H](C)N(c2nc(=O)n(C)c3ccc(C#N)nc23)C[C@H]1C (single isomer, unassigned) [Example 154] | – | 1430 |
